For experiment [1], the target named is T1, Polyunsaturated fatty acid 5-lipoxygenase (Homo sapiens, UniProt P09917).
T1 sequence (P09917 whole entry): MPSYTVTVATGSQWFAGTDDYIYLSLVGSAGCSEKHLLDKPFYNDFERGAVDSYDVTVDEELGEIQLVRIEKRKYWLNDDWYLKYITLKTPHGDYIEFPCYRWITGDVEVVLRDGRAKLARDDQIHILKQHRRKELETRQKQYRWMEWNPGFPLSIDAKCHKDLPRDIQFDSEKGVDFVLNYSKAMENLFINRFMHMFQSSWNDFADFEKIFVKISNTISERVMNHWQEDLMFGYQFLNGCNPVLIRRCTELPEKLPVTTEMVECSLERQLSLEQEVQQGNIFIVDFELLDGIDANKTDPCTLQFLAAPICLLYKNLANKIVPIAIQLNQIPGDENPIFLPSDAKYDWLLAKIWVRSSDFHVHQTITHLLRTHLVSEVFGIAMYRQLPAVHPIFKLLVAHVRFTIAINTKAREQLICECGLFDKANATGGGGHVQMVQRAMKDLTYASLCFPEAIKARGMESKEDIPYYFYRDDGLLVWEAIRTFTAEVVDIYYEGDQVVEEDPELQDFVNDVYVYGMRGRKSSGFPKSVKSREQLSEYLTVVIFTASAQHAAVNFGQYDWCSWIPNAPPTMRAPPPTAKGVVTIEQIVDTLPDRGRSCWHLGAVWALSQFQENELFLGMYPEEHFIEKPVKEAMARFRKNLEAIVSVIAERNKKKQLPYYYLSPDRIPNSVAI
The experiment can be described thus: Inhibition of human PMNL 5-LOX using arachidonic acid as substrate after 5 mins by HPLC method.

Experiment [2] in a line: Inhibition of soybean 15-LOX by spectrophotometric method. Set-up: species or system Glycine max.
The target in experiment [3] is T1, Polyunsaturated fatty acid 5-lipoxygenase. The experiment in a line: Inhibition of recombinant human 5-LOX expressed in Escherichia coli BL21 (DE3) cells preincubated for 10 mins followed by arachidonic acid addition and measured after 10 mins by RP-HPLC method.
Experiment [4] has the same target. The experiment can be described thus: Inhibition of 5-LOX in A23187-stimulated human neutrophils preincubated for 15 mins followed by A23187 stimulation and measured after 10 mins.
For experiment [5], the target named is Prostaglandin E synthase/G/H synthase 2 (Homo sapiens) (UniProt P35354+O14684). The experiment in a line: Inhibition of COX2/mPGES1 in TNFalpha-induced human HeLa cells assessed as reduction in PGE2 production at 50 uM incubated for 3 hrs by EIA relative to control. The class given is cell-based.
In experiment [6] the target is T2, Polyunsaturated fatty acid 5-lipoxygenase (Homo sapiens) (UniProt P09917).
T2 sequence (whole entry): T1 sequence (P09917 whole entry)
The experiment in a line: Inhibition of recombinant human 5-LOX expressed in Escherichia coli BL21 cells at 50 uM using arachidonic acid as substrate by UV-vis spectrophotometry relative to control.

The target of experiment [7] is T1, Polyunsaturated fatty acid 5-lipoxygenase. The experiment in a line: Inhibition of 5-LOX (unknown origin) after 5 mins by colorimetric method.
Experiment [8] deals with T3, Polyunsaturated fatty acid 5-lipoxygenase (Rattus norvegicus, UniProt P12527).
T3 sequence (P12527 whole entry): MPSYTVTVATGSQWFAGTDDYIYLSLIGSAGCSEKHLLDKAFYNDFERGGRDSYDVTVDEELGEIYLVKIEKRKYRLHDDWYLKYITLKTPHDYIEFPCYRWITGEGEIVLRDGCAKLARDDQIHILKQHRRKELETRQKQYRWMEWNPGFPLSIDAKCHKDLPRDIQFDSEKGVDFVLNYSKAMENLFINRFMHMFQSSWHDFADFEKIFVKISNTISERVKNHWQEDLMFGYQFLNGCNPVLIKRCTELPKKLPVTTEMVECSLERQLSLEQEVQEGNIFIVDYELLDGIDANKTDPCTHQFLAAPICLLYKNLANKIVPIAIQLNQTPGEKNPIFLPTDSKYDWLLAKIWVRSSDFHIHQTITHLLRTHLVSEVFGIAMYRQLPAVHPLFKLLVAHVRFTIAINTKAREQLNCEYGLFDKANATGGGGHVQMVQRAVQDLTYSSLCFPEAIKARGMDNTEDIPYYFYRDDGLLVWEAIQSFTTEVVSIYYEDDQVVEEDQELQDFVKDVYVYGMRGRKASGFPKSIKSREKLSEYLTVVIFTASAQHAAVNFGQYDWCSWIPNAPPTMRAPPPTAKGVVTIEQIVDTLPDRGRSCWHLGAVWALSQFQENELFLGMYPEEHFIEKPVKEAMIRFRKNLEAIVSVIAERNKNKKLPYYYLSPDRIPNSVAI
The experiment can be described thus: Inhibition of rat 5-LOX expressed in insect sf21 cells preincubated for 4 mins followed by Arachidonic acid addition and measured after 4 mins by FOX assay.

Experiment [9] addresses T1, Polyunsaturated fatty acid 5-lipoxygenase. The experiment in a line: Inhibition of recombinant human 5-LOX expressed in baculovirus-infected insect cells preincubated for 10 mins followed by Arachidonic acid and ATP addition and measured after 20 mins by H2DCFD dye based fluorescence method.
In experiment [10] the target is T2, Polyunsaturated fatty acid 5-lipoxygenase (Homo sapiens). The experiment in a line: Inhibition of 5-LOX in human whole blood preincubated for 10 mins followed by Arachidonic acid and ATP addition and measured after 20 mins by H2DCFD dye based fluorescence method. The class given is tissue-based.
The target in experiment [11] is T1, Polyunsaturated fatty acid 5-lipoxygenase. The experiment can be described thus: Competitive inhibition of recombinant human 5-LOX expressed in Escherichia coli BL21 cells using Arachidonic acid as substrate by UV absorbance.
Experiment [12] deals with T4, Polyunsaturated fatty acid 5-lipoxygenase (Rattus norvegicus) (UniProt P12527).
T4 sequence (whole entry): T3 sequence (P12527 whole entry)
The experiment in a line: Inhibition of 5-LOX in rat RBL-1 cells assessed as reduction in LTB4 secretion at 1 uM preincubated for 10 mins followed by A23187 stimulation and measured after 15 mins by EIA. The class given is cell-based.

Experiment [13] addresses T4, Polyunsaturated fatty acid 5-lipoxygenase (Rattus norvegicus). The experiment in a line: Inhibition of rat 5-LOX expressed in insect sf21 cells at 1 uM preincubated for 4 mins followed by Arachidonic acid addition and measured after 4 mins by FOX assay relative to control.
The nature of experiment [14]: Inhibition of potato 5-LOX using linoleic acid as substrate measured at 2 min by UV absorbance method. On the set-up: species or system Solanum tuberosum.
The next experiment relates to MCF7. The experiment in a line: Antiproliferative activity against human MCF7 cells by MTT assay. The class given is functional, cell-based. Background: Tetrazolium dyes change colour on reduction, which living cells bring about.
A further experiment has as its system Glycine max. The experiment can be described thus: Inhibition of soybean 5-LOX at 100 uM incubated for 10 mins relative to control.
Experiment [15] deals with T1, Polyunsaturated fatty acid 5-lipoxygenase. The experiment can be described thus: Inhibition of human leukocyte 5-LOX using arachidonic acid as substrate by UV/Vis spectrophotometry.

pIC50: −log10 of the molar value.

Sequence of Prostaglandin E synthase/G/H synthase 2 (Homo sapiens) (O14684 whole entry, looked up): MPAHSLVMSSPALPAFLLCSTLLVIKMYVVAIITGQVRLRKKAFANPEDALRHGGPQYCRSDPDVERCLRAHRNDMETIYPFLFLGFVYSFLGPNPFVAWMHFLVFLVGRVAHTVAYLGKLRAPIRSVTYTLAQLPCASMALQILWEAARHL
Sequence of Prostaglandin E synthase/G/H synthase 2 (Homo sapiens) (P35354 whole entry, looked up): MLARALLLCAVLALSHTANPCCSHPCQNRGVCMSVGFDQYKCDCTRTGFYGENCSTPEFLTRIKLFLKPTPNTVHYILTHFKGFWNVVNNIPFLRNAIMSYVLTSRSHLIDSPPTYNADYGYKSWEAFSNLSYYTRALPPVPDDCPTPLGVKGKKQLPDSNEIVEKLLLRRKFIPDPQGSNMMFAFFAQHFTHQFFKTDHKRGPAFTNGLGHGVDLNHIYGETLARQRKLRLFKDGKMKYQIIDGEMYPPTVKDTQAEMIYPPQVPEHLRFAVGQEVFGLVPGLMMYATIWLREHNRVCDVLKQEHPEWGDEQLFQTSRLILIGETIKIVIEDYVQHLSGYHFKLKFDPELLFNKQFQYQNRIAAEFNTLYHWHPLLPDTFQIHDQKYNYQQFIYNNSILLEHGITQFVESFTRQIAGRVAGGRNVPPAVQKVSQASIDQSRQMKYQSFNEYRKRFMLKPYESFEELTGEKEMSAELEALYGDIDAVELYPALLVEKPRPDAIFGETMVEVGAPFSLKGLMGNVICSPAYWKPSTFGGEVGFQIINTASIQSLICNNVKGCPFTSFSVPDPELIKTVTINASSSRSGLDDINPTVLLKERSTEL

The pIC50 is the IC50 on a negative log10 scale, so that one unit is a factor of ten. `COc1cc(CNC(=O)CCCC/C=C/C(C)C)ccc1O` [CAPSAICIN] had a pIC50 in [1] of 4.25.

As for `CCCCCC(=O)c1c(O)cc(O)c(C/C=C(\C)CCC=C(C)C)c1O`, the pIC50 in experiment [2] was 4.99.

`C=CCSCC=C` [DIALLYL SULFIDE] had a pIC50 in [1] of 4.08.

As for `O=C(NCCCCCCCCCNC(=O)c1cccc(O)c1O)c1cccc(O)c1O`, the pIC50 in experiment [3] is 7.00.

Molecule `Cc1cccc(OC(=O)c2cc([N+](=O)[O-])cc([N+](=O)[O-])c2)c1` gave a pIC50 in experiment [4] of 6.05.

Turning to `O=C(/C=C/C=C/c1ccc2c(c1)OCO2)N1CCCCC1` [PIPERINE], in [1], the pIC50 was 4.27.

`C=CCc1ccc(O)c(OC)c1` [EUGENOL] showed a pIC50 in experiment [1] of 4.59.

For orientation: inhibition means how much of the control response was suppressed. Turning to `CS(=O)(=O)NC(Cc1cc(I)c(OCc2ccon2)c(I)c1)C(=O)O` (stereo unspecified), the inhibition amounted to 66% in experiment [5] and 74% in experiment [6].

On to `Cc1cc(Nc2ncc(-c3ccc(F)cc3)o2)cc(C)c1O`, for which, in experiment [7], the pIC50 is 4.32.

The molecule `O=C/C=C/c1ccccc1` had a pIC50 in [1] of 4.46.

`CC(C)=CCn1cc(/C=N/NC(N)=O)c2cc(Br)ccc21` gave a pIC50 in [8] of 6.92.

A word on the IC80: it is the concentration at which the effect reaches the 80% level. The low end stands for greater potency, the high end for weaker potency. Turning to `Cn1nccc1-c1ccc(Sc2ccc(C3(C(N)=O)CCOCC3)cc2)cc1`, the pIC50 in experiment [9] is 6.64. Also, the 80% effect level in experiment [10] (IC80) was put at 0.37 µM.

Regarding `Clc1ccc(-c2cc(-c3c[nH]c4ccccc34)cc(-c3ccc(Cl)cc3)n2)cc1`, the pIC50 in experiment [11] is 5.00.

Consider `COc1ccc(/C=C2\SC(c3ccc4ccccc4c3)=NC2=O)cc1`, for which the inhibition in experiment [12] was found to be 98%; in experiment [13] it was 96%.

`O=C(c1[nH]nc2c1CSc1sc(Br)cc1-2)N1CCN(c2ccccc2F)CC1` gave a pIC50 in experiment [14] of 4.47.

The molecule `NCCCC(=O)c1cc(=O)c2cc(F)ccc2o1` showed a pIC50 in the experiment on MCF7 of 6.05. The molecule also yielded an inhibition in the experiment on Glycine max of 68%.

Take `Cc1ccc(S(=O)(=O)n2c(C(=O)C(=O)N3CCCC3)cc3ccccc32)cc1`: the pIC50 in [15] was 6.77.
